The text below walks through data of patent EP0104857A1, “Deoxyuridine compounds, methods for preparing them and their use in medicine” (BEECHAM GROUP PLC, priority 1982, dated 1984).

Read-outs that look alike come from different tables or passages of the source.

Series [1] in a line: Cytotoxicity in the plaque reduction assay cultures. The series is classed as cell-based, African Green Monkey. Conditions: monkey; minimum concentration of test compound which caused cytotoxicity; Vero cells, 4 days; highest concentration tested 100; read-out: MTD. On the procedure:
(§1) Vero (African Green Monkey Kidney) cells were grown to confluence in 24 well multidishes, each well being 1.6 cm in diameter. The cells were infected with Herpes simplex type 1 virus (HFEM strain) and overlaid with 0.5ml of 0.9% agarose (w/v) in maintenance medium. Test compounds prepared in maintenance medium in concentrations ranging from 100 to 0.03 pg/ml in half-log dilution steps, were added in 0.5ml volume. The virus infected cultures were then incubated at 37 °C for 4 days before fixing in 4% formaldehyde solution and staining with carbolfuchsin.

Series [2] concerns Herpes simplex type 1 virus (HFEM strain). Description: Plaque reduction assay in virus-infected Vero cells. Conditions: Human alphaherpesvirus 1, 96 h, concentration causing 50% reduction in number of virus plaques, HSV-1 HFEM strain, 4 days incubation at 37 C, read-out: PDD50 (the source's name). It counts as cell-based. On the procedure: as §1

For the molecule `CCOC(CCl)OC[C@H]1O[C@@H](n2cc(/C=C/Br)c(=O)[nH]c2=O)C[C@@H]1OC(CCl)OCC` (stereo partly drawn) [Example 19, 5-(E-2-Bromovinyl)-3',5'-bis-0-(2-chloro-1-ethoxyethyl)-2'-deoxyuridine], the MCC at 96 h in series [1] was over 100 µg/mL. In addition, the IC50 in series [2] (molar units) is 17 µM; in series [2] it was 9.1 µg/mL.

With `CCOC(CCl)O[C@H]1C[C@H](n2cc(/C=C/Br)c(=O)[nH]c2=O)O[C@@H]1CO` (stereo partly drawn) [Example 20, 5-(E-2-bromovinyl)-3'-O-(2-chloro-1-ethoxyethyl)-2^1-deoxyuridine], the MCC at 96 h in series [1] was over 100 µg/mL. Also, the IC50 was determined as 7.5 µM in series [2] (molar units) and 3.3 µg/mL in series [2].

Consider `O=c1[nH]c(=O)n([C@H]2C[C@H](O)[C@@H](COC3CCCCO3)O2)cc1/C=C/Br` (stereo partly drawn) [Example 6, 5-(E-2-bromo-vinyl) -2'-deoxy-5'-O-(tetrahydropyran-2-yl) uridine], for which the MCC at 96 h in series [1] was over 100 µg/mL. In addition, the IC50 in series [2] (molar units) worked out at 170 µM; in series [2], 69 µg/mL.

Turning to `O=c1[nH]c(=O)n([C@H]2C[C@H](OC3CCCO3)[C@@H](COC3CCCO3)O2)cc1/C=C/Br` (stereo partly drawn) [Example 1, 5-(E-2-Bromovinyl)-2'-deoxy-3',5'-bis-O-(tetrahydrofuran-2-yl)uridine], in series [1], the MCC at 96 h is over 100 µg/mL. Moreover, the IC50 in series [2] (molar units) came out at 9 µM; in series [2], 4.3 µg/mL.

Consider `O=c1[nH]c(=O)n([C@H]2C[C@H](OC3CCCCO3)[C@@H](CO)O2)cc1/C=C/Br` (stereo partly drawn) [Example 5, 5-(E-2-bromovinyl)-2'-deoxy-3'-O-(tetrahydropyran-2-yl)uridine], for which, in series [1], the MCC at 96 h is over 100 µg/mL. The IC50 was 4.3 µM in series [2] (molar units) and 1.8 µg/mL in series [2].

Turning to `O=c1[nH]c(=O)n([C@H]2C[C@H](OC3CCCCO3)[C@@H](COC3CCCCO3)O2)cc1/C=C/Br` (stereo partly drawn) [Example 4, 5-(E-2-Bromovinyl)-2'-deoxy-3',5'-bis-O-(tetrahdropyropyran-2-yl)uridine], in series [1], the MCC at 96 h is 100 µg/mL. The IC50 in series [2] (molar units) came to 34 µM; in series [2] it was 17 µg/mL.

In the case of `O=c1[nH]c(=O)n([C@H]2C[C@H](O)[C@@H](COCOCc3ccccc3)O2)cc1/C=C/Br` [Example 12, 5'-O-benzoxymethyl-5-(E-2-bromovinyl)-2'-deoxyuridine], the MCC at 96 h in series [1] is over 100 µg/mL. The figures for the IC50 in series [2] (molar units) and in series [2] were 15 µM and 6.6 µg/mL, respectively.

In the case of `O=c1[nH]c(=O)n([C@H]2C[C@H](OC3CCCO3)[C@@H](CO)O2)cc1/C=C/Br` (stereo partly drawn) [Example 2, 5-(E-2-bromovinyl)-2'-deoxy-3'-O-(tetrahydrofuran-2-yl)uridine], the MCC at 96 h in series [1] was over 100 µg/mL. Besides, the IC50 in series [2] (molar units) is 2.8 µM; in series [2] it was 1.1 µg/mL.

Regarding `CCOC(CCl)OC[C@H]1O[C@@H](n2cc(/C=C/Br)c(=O)[nH]c2=O)C[C@@H]1O` (stereo partly drawn) [Example 21, 5-(E-2-bromovinyl)-5'-0-(2-chloro-1-ethoxyethyl)-2'-deoxyuridine], the MCC at 96 h in series [1] was over 100 µg/mL. The values for the IC50 in series [2] (molar units) and in series [2] were 43 µM and 19 µg/mL, respectively.

Turning to `CCOC(CC)OC[C@H]1O[C@@H](n2cc(/C=C/Br)c(=O)[nH]c2=O)C[C@@H]1O` (stereo partly drawn) [Example 8, 5-(E-2-bromovinyl)-2'-deoxy-5'-O-(1-ethoxypropyl)uridine], in series [1], the MCC at 96 h is over 100 µg/mL. In addition, the IC50 in series [2] (molar units) was 15 µM; in series [2], 6.4 µg/mL.

For `O=c1[nH]c(=O)n([C@H]2C[C@H](OCOCc3ccccc3)[C@@H](COCOCc3ccccc3)O2)cc1/C=C/Br` [Example 10, 3',5'-Bis-O-benzoxmethl-5-(E-2-bromovinyl)-2'-deoxuridine], the MCC at 96 h in series [1] is over 100 µg/mL. Besides, the figures for the IC50 in series [2] (molar units) and in series [2] were 126 µM and 72 µg/mL, respectively.
